Like-named read-outs stand apart in the source and are kept apart here.
Tests used:
[1] = system: GABA receptor complex (36Cl uptake, cerebral cortical synaptoneurosomes); experiment: GABA-stimulated 36Cl uptake in rat cerebral cortical synaptoneurosomes; assay type: biochemical, rat (male Sprague-Dawley)
Procedure: In addition, the ability of the BZ clonazepam to modulate ^36 Cl uptake in the presence or absence of 5α-pregnandiol was evaluated.
The homogenate was diluted to a final volume of 40 mL with buffer and filtered through three layers of Nylon mesh (160 μm).
Aliquots of membrane preparation (200 μL) were preincubated at 30° C. for 10 min. The interaction was initiated by the simultaneous addition of drugs/steroids and 0.2 mL ^36 Cl (New England Nuclear Boston, Mass., 0.55 mCi/mmol, 0.8 μCi/ml) resulting in a total incubation volume of 0.4 mL. Steroids and test drugs were solubilized in dimethylsufoxide (DMSO) and added to the reaction mixture in 2 μL aliquots. An equal volume of vehicle was always included in the control reaction mixture. The mixture was gently mixed and ^36 Cl uptake terminated after 5 sec by the of 5 mL of ice cold buffer containing 100 μM picrotoxin (Sigma Chem Co.) followed immediately by rapid filtration through glass fiber filters (Whatman GF/C) under vacuum. The filters were washed twice with 5 mL of ice-cold buffer and the filter-bound radioactivity quantitated by liquid scintillation spectrophotometry. Specific uptake was calculated by subtracting the amount of ^36 Cl bound to the filters in the absence of synaptoneurosomes from that observed in their presence. Percent enhancement represents percent increase in uptake over that of basal ^36 Cl uptake. Statistical comparisons utilized the analysis of variance (ANOVA).

[2] = biological target: T1, progesterone receptor (Bos taurus, UniProt F1N712); experiment: Inhibition of 3H-progesterone binding to bovine uteral progesterone receptors
T1 construct: from tissue; host or cells: bovine uterus cytosol
T1 sequence (F1N712 1-914): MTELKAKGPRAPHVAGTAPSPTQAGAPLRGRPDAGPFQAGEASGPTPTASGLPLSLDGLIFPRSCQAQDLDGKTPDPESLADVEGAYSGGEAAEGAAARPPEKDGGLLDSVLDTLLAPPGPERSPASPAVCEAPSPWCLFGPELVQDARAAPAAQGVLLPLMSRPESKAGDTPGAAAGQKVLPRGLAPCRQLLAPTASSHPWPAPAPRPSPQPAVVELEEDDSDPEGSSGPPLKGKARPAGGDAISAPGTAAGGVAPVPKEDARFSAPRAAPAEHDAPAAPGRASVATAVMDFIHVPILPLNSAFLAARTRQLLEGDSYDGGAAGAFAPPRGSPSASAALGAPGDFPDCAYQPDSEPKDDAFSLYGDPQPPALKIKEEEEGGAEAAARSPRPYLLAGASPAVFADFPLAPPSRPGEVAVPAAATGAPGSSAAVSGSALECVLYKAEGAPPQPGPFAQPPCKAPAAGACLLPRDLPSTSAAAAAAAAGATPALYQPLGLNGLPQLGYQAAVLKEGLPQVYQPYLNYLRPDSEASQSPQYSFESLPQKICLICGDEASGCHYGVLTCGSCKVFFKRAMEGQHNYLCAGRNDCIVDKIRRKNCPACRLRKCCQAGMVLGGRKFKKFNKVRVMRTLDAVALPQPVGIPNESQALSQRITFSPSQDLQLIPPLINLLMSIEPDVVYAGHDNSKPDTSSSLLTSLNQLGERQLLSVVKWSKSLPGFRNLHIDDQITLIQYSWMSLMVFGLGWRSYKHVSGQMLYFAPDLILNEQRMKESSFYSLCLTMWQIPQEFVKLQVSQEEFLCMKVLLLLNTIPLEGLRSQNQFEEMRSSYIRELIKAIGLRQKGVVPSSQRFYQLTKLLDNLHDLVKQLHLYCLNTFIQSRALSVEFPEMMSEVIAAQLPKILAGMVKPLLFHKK
Procedure: The hormonal activity of drugs described herein was further studied through testing their potential estrogenic, progestinic, mineralocorticoid and glucocorticoid activities. These activities were analyzed by monitoring the ability of the drugs to inhibit binding of the steroid hormones to their respective hormone receptors.
For the data presented in Table 9, bovine uteri cytosol was isolated as they were for Table 7 and used for following binding to progesterone receptors by following the inhibition of ^3 H-progesterone, the natural ligand.

[3] = biological target: GABA receptor-chloride ionophore complex (GR complex); experiment: [35S]TBPS binding modulation assay; conditions: for IC50: read-out: IC50, inhibition of [35S]-TBPS binding, +5 μM GABA, in the presence of 5 μM GABA; for Max. Inhib., maximal % of specifically bound [35S]-TBPS displaced: saturating concentrations of test compound
[4] = system: metrazol induced convulsions; experiment: Inhibition of metrazol induced convulsions (Table 2); assay type: in vivo, mice; conditions: Mus musculus; inhibition of metrazol induced convulsions; read-out: Anti-Metrazol ED50
Procedure: Experiments were also performed to determine the physiological relevance of these interactions by measuring the ability of the compound of and used in the invention to modulate TBPS-induced convulsions in Swiss-Webster mice. […] The time to onset of myoclonus (presence of forelimb clonic activity) induced by TBPS was determined by observing each mouse for a period of 45 minutes. Significant differences between the time to onset in control mice vs. steroid-treated mice were determined by Student's t-test. […] The number of animals with tonic and/or clonic convulsions was recorded. In the maximal electroshock test, 50 mA of current at 60 Hz was delivered through corneal electrodes for 200 msec to induce tonic seizure. […] The ED50 (the dose at which the half-maximal effect occurs) was determined for each screen.
Adult male CFI mice (20-30g) were used in these studies. […] Percent protection against metrazol-induced seizures was plotted against time after administration of the compound. […] Ten to twelve mice were used per dose of test drug. […] The number of animals with tonic and/or clonic convulsions was recorded. The ability of the steroid to abolish the tonic component was defined as the endpoint. Sedative potential was determined by a rotorod test where the number of mice staying on a rotating (6 rpm) rod for ≥1 min. in each of three trials was determined.

[5] = system: metrazol-induced seizures; experiment: Time course of antimetrazol activity of prodrugs; assay type: in vivo, mice (CF1); conditions: 60 mg/kg ip; for responders at 60 mg/kg: Mus musculus
[6] = system: number of light/dark transitions (anxiety); experiment: Light/dark transition test; assay type: in vivo, mice (male N.I.H. Swiss-Webster); conditions: 3α-OH-DHP 10, 20, 40 mg/kg; 5α-THDOC 20 mg/kg; diazepam 1.0, 5.0, 10, 20 mg/kg; 20 mg/kg
Excerpt: (§1) The light/dark transition test (Crawley and Goodwin, 1980) is based on the observation that rodents naturally tend to explore novel environments, but open, brightly lit arenas are aversive to the rodents and inhibit exploratory behavior (Christmas and Maxwell, 1970; File, 1980). […] Similar to the light/dark transition test, the open-field test measures the antagonism between the tendency to explore a novel environment and the tendency to remain still in an aversive environment (brightly lit arena). […] The open-field test provides a simple, non-punished assessment of the potential anxiolytic properties of novel compounds. Finally, 3α-OH-DHP was tested for anxiolytic properties in a Vogel conflict paradigm. The ability of BZs to attenuate the suppression of behavior by punishment in conflict paradigms is well established (Gellar et al., 1962; Vogel et al., 1971).
(§2) Male N.I.H. Swiss-Webster mice (Harlan) weighing 15-20 g were used in all experiments. The mice were housed 4/cage in polyethylene cages with sawdust bedding. The colony room was environmentally controlled (22° C.) with a 12 hr. light/dark cycle (0600-1800 hrs.). The mice had free access to food and water. The experiments were run from 0700-1500 hrs. and groups were counterbalanced for time of day effects.
The method used was previously described by Crawley and Goodwin (1980). The apparatus included a large box (26×33×24 cm) connected to a small box (15×22×14 cm) through an opening (5×6 cm). The large box was brightly lit with a standard 100W light bulb, while the small box was kept dark. Following pretreatment with a test drug, mice were placed in the center of the large box and the number of transitions between the large and small boxes was counted for 10 min. […] During the antagonist studies, CGS-8216 was administered 30 min. prior to the test drug.
(§3) 2-Hydroxypropyl β-cyclodextrin Diazepam and chlordiazepoxide are available from Sigma, Co. (St. Louis, Mo.). CGS-8216 was obtained from Ciba-Geigy (Summit, N.J.). All drugs were dissolved in 20% β-cyclodextrin in water and sonicated overnight. All drugs were administered intraperitoneally in a volume of 100 μL/20 g. CGS-8216 was administered subcutaneously in a volume of 100 μL/20 g.
(§4) The vehicle control data were analyzed across test days using an 1-way analysis of variance (ANOVA). […] The dose-response curves were then analyzed using an 1-way ANOVA, followed by Dunnett's t-test for individual comparisons between doses and control. The open-field and habituated locomotor data were analyzed using ANOVA followed by Dunnett's t-test. […] All data is expressed as the mean±S.E.M.

[7] = system: open-field activity; experiment: Open-field activity test; assay type: in vivo, mice (male N.I.H. Swiss-Webster)
Excerpt: as §1, §2
As a secondary measure of anxiolytic effects, naive mice were placed in the center of a large, brightly lit plexiglass box (42×42×30.5 cm) and the total distance traveled was measured during a 10 min. test period. […] The Digiscan Activity Monitor (Omnitech Electronics, Columbus, Ohio) includes 16 photobeams that surround the box. The activity monitor is linked to a computer through a Digiscan Analyzer (Omnitech Electronics) and the data is analyzed using the Integrated Lab Animal Monitoring System (Omnitech Electronics). The mice were administered drugs as described for light/dark transitions.
as §3, §4

[8] = 1 hr, read-out: Antimetrazol activity, % of animals protected, 1 hr
[9] = 4 hr, read-out: Antimetrazol activity, % of animals protected, 4 hr

CN1CCc2cc3c(cc2[C@H]1[C@@H]1OC(=O)c2c1ccc1c2OCO1)OCO3 [(+)bicuculline, reference compound]
block of the stimulatory effect of GABA on 36Cl uptake ([1]; (+)bicuculline 10 μM, GABA 25 μM): completely block | % enhancement of basal 36Cl uptake ([1]; GABA (25 μM) + (+)bicuculline (10 μM)): 3 ± 2%

CC(=O)[C@H]1CC[C@H]2[C@@H]3CC[C@H]4C[C@](C)(O)CC[C@]4(C)[C@H]3CC[C@]12C [3α-HYDROXY-3β-METHYL-5α-PREGNAN-20-ONE, 3α-hydroxy-3β-methyl-5α-pregnan-20-one]
inhibition at 10 µM ([2]; read-out: % of inhibition of 3H-progesterone binding, A, competitor 10^-5 M, 0.15 nM 3H-progesterone): 10% | inhibition at 1 µM ([2]; read-out: % of inhibition of 3H-progesterone binding, A, competitor 10^-6 M, 0.15 nM 3H-progesterone): 4% | inhibition at 10 µM ([2]; read-out: % of inhibition of 3H-progesterone binding, B, competitor 10^-5 M, 0.25 nM 3H-progesterone): 5% | inhibition at 1 µM ([2]; read-out: % of inhibition of 3H-progesterone binding, B, competitor 10^-6 M, 0.25 nM 3H-progesterone): 2% | IC50 [3]: 0.06 µM | Max. Inhib., maximal % of specifically bound [35S]-TBPS displaced [3]: 100% | ED50 [4]: 9 mg/kg

CCO[C@H]1C[C@@]2(C)[C@@H](CC[C@@H]3[C@@H]2CC[C@]2(C)[C@@H](C(C)=O)CC[C@@H]32)C[C@@H]1O [2β-ETHOXY-3α-HYDROXY-5α-PREGNAN-20-ONE, 2β-Ethoxy-3α-hydroxy-5α-pregnan-20-one]
IC50 [3]: 0.097 µM | Max. Inhib., maximal % of specifically bound [35S]-TBPS displaced [3]: 100% | ED50 [4]: 6 mg/kg

NCCCC(=O)O [GABA, gamma-aminobutyric acid]
% enhancement of basal 36Cl uptake ([1]; GABA (25 μM) alone): 133 ± 6% | shift of [35S]TBPS dose-response curve by (+)bicuculline ([3]; 0.5-3.0 μM bicuculline, FIGS. 1A, 1B): classical parallel shift

CC(=O)[C@H]1CC[C@H]2[C@@H]3CCC4=C[C@H](O)CC[C@]4(C)[C@H]3CC[C@]12C [3α-HYDROXY-4-PREGNEN-20-ONE]
IC50 [3]: 0.154 µM | Max. Inhib., maximal % of specifically bound [35S]-TBPS displaced [3]: 80% | ED50 [4]: 20 mg/kg

CC(=O)[C@H]1CC[C@H]2[C@@H]3CC[C@H]4C[C@H](OC(=O)c5cccnc5)CC[C@]4(C)[C@H]3CC[C@]12C
Antimetrazol activity, % of animals protected, 20 hr [5]: 50%

CCCCC(=O)O[C@@H]1CC[C@@]2(C)[C@@H](CC[C@@H]3[C@@H]2CC[C@]2(C)[C@@H](C(C)=O)CC[C@@H]32)C1
Antimetrazol activity, % of animals protected, 20 hr [5]: 33% | responders at 60 mg/kg [5, 8]: 33% | responders at 60 mg/kg [5, 9]: 33%

CO[C@H]1C[C@@]2(C)[C@@H](CC[C@@H]3[C@@H]2CC[C@]2(C)[C@@H](C(C)=O)CC[C@@H]32)C[C@@H]1O [2β-METHOXY-3α-HYDROXY-5α-PREGNAN-20-ONE, 2β-Methoxy-3α-hydroxy-5α-pregnan-20-one]
IC50 [3]: 0.066 µM | Max. Inhib., maximal % of specifically bound [35S]-TBPS displaced [3]: 100% | ED50 [4]: 60 mg/kg

CC(=O)[C@H]1CC[C@H]2[C@@H]3CC[C@H]4C[C@@H](O)CC[C@]4(C)[C@H]3CC[C@]12C [Example 3β-OH-DHP, 3β-hydroxy-5α-pregnan-20-one, reference compound]
IC50 [3]: > 100 µM | Max. Inhib., maximal % of specifically bound [35S]-TBPS displaced [3]: 33% | IC50, inhibition of [35S]-TBPS binding, No GABA ([3]; washed synaptoneurosomes, no GABA added): Inactive | effect on number of light/dark transitions (words) [6]: did not produce an anxiolytic effect | total distance, open-field ([7]; 20 mg/kg, 10 min, vehicle 2004.6 ± 134.6): 1979.8 ± 174.5 cm | effect on open-field activity ([7]; steroids 20 mg/kg, diazepam 10 mg/kg): did not show any effect

CC(=O)[C@H]1CC[C@H]2[C@@H]3CC[C@H]4C[C@H](OC(=O)c5ccc(Cl)cc5)CC[C@]4(C)[C@H]3CC[C@]12C
responders at 60 mg/kg [5, 8]: 50% | responders at 60 mg/kg [5, 9]: < 16%

CC(=O)[C@H]1CC[C@H]2[C@@H]3CC[C@H]4C[C@H](OC(=O)C(C)C)CC[C@]4(C)[C@H]3CC[C@]12C
responders at 60 mg/kg [5, 8]: 75% | responders at 60 mg/kg [5, 9]: 29%

From patent US5232917A, “Methods, compositions, and compounds for allosteric modulation of the GABA receptor by members of the androstane and pregnane series” (priority 1991, dated 1993)
